# Legend:
# [1] = tested on: EAE (Experimental Autoimmune Encephalomyelite) mice; test: EAE mouse model, intraventricular pump from clinical score 1; format: in vivo, SJL/j mice
# Text: We carried out trials in mouse models exemplifying 3 families of neurological diseases: • EAE (Experimental Autoimmune Encephalomyelite, model of neuroinflammatory disease): SJL/j mice were immunized with two subcutaneous injections, performed 7 days apart, of proteolipid protein (PLP139-151), Freund's adjuvant and inactivated Mycobacterium tuberculosis. The disease severity was rated with a clinical score: 0=healthy; 1=tail weakness; 2=rear limb ataxia and/or paresis; 3=rear limb paralysis and/or front limb paresis; 4=tetraplegia; 5=state of agony or death • AD (Alzheimer's Disease, model of neurodegenerative disease): AD triple transgenic mouse (3xTg-AD) supplied by Jackson Laboratories (http://jaxmice.jax.org/strain/004807.html) Their memory was evaluated using the Passive Avoidance and Radial Maze tests; • TSC (Tuberous sclerosis complex, model of neuro-oncologic disease): TSC1 mouse with TSC1 gene within a flox cassette, supplied by Jackson Laboratories (http://jaxmice.jax.org/strain/005680.html)
# 30 SJL/j mice were immunized and started developing the disease after 11 days. As they developed the neurological deficit and reached a score of 1, they were operated on and an Alzet 1004 pump containing everolimus or a vehicle was positioned. The purpose of this was to represent the usual clinical situation in which the patient goes to the doctor's on the occasion of the first attack. Generally speaking, a diagnosis is made and a high-dose steroid therapy is applied, with good regression of the symptoms, but in the majority of cases other attacks will occur and they will be followed by an increasingly less satisfactory regression, with a gradual increase in residual disability.
# In our experimental set, the weight and clinical score of affected mice were monitored daily.
# [2] = Blood and brain concentrations and metabolites (LC-MS) after intraventricular (intracerebral) administration by osmotic pump; format: in vivo; settings: mice that had received intrathecal treatment
compound,measurement,setting,value
CO[C@H]1C[C@@H]2CC[C@@H](C)[C@@](O)(O2)C(=O)C(=O)N2CCCC[C@H]2C(=O)O[C@H]([C@H](C)C[C@@H]2CC[C@@H](OCCO)[C@H](OC)C2)CC(=O)[C@H](C)/C=C(\C)[C@@H](O)[C@@H](OC)C(=O)[C@H](C)C[C@H](C)/C=C/C=C/C=C/1C [everolimus],Immunosuppressive effect of intrathecal administration,[1]; EAE mice,powerful local immunosuppressive effect
same,Severity of the following 2 attacks,"[1]; intraventricular pump implanted at score 1, vs controls",not much milder than in the controls
same,Severity of the first attack,"[1]; intraventricular pump implanted at score 1, vs vehicle",reduction in the severity of the first attack
same,Attacks after the third attack,"[1]; intraventricular pump, controls continued to have recurring attacks",no longer manifested attacks
same,Clinical score after the third attack,[1]; score scale 0=healthy to 5=agony or death,0
same,Body weight after the third attack,"[1]; treated EAE mice, FIG. 3",fully recovered
same,Blood concentration (detectable only in traces),[2],< 1 mg/kg
